The results in this text go back to patent US11834450B2, “Compounds having ((3-nitrophenyl)sulfonyl)acetamide as BCL-2 inhibitors” (Eil Therapeutics, Inc., priority 2021, dated 2023).

Data set [1] concerns the target T1, BCL-2 (Homo sapiens, UniProt P10415).
T1 construct: purchased BPS Bioscience #50222
In words: BCL-2 TR-FRET Assay (primary PPI inhibition). The data set is classed as binding. The following applies: 60 min incubation; read-out: BCL2 (IC50 code, BCL-2 TR-FRET). Background: Time-resolved FRET reads energy transfer from a long-lived donor to a nearby acceptor.

In data set [2] the target is T2, BCL-XL (Homo sapiens, UniProt Q07817).
T2 construct: purchased BPS Bioscience #50223
T2 sequence (Q07817 whole entry): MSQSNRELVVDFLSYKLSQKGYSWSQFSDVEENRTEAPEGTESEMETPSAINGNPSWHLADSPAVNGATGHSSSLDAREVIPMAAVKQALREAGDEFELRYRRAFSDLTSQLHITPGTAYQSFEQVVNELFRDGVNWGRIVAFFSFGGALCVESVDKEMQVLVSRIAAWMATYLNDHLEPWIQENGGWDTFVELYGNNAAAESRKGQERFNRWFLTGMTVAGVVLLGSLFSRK
Kind of data set: BCL-XL TR-FRET Assay (primary PPI inhibition). The data set is classed as binding. The following applies: 60 min incubation; read-out: BCLxL (IC50 code, BCL-XL TR-FRET). Summed up: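 10.5 ng His-tagged BCL-XL incubated 60 min with test compound, BCL-XL peptide ligand (1:80), Tb-labelled anti-His donor and dye-labelled acceptor (each 1:100). Displacement read as TR-FRET, excitation 340 nm, emission 620 and 665 nm, 60 μs delay, 500 μs integration.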

Data set [3] concerns RS4-11 cells. Kind of data set: Cell viability assay RS4-11 (CellTiter-Glo). The data set is classed as cell-based. Particulars: Homo sapiens, 72 h; RS4-11 cells, 3 days, CellTiter-Glo; read-out: RS4-11 (CC50 code). In outline: (§1)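 Cells were seeded at 2000/well (HEK293, in DMEM, pre-incubated a day) or 4000/well (other lines, in RPMI-1640). Serially diluted compound was added and plates incubated 3 days at 37 °C, with viability read by CellTiter-Glo luminescence.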

In data set [4] the test system is MOLT-4 cells. Kind of data set: Cell viability assay MOLT-4 (CellTiter-Glo). It counts as cell-based. Particulars: Homo sapiens, 72 h; MOLT-4 cells, 3 days, CellTiter-Glo; read-out: MOLT-4 (CC50 code). Summed up: as §1
A general note: In ATP-based viability assays light output follows the ATP content of the culture.

The nature of data set [5]: Cell viability assay HEK293 (CellTiter-Glo). The data set is classed as cell-based. The following applies: human, HEK293 cells, read-out: HEK293 (CC50 code). In outline:
as §1

Data set [6] has as its system caspase-3 and -7 activities in RS4-11 cells. Kind of data set: Cas-3/7 activation (Caspase-Glo 3/7) in RS4-11 cells. It counts as cell-based. The following applies: Homo sapiens, 3.5 h at 37° C. and 30 min at r.t., read-out: Cas-3/7 (EC50 code). Here is the method:
Assay Principle: The Caspase-Glo 3/7 Assay is homogeneous, luminescent assay that measures caspase-3 and -7 activities. The assay provides a luminogenic caspase-3/7 substrate, which contains the tetrapeptide sequence DEVD, in a reagent optimized for caspase activity.
Assay Procedure: Incubate RS4-11 cells with varying concentrations of test compounds for 3.5 h in a humidified incubator at 37° C. and 5% CO2 and 30 min at r.t. Add 15 μl Caspase-Glo reagent to each well and incubate the plate for 30 min at r.t. Read on ClarioStar Plus instrument.
Materials: Promega Caspase-Glo (Promega, #8212); Frozen RS4-11 cells; 384-well white plate (Corning, #3570).
Instrumentation: ClarioStar Plus; Biomek FX for liquid handling (Beckman Coulter).

T1 sequence (P10415 whole entry): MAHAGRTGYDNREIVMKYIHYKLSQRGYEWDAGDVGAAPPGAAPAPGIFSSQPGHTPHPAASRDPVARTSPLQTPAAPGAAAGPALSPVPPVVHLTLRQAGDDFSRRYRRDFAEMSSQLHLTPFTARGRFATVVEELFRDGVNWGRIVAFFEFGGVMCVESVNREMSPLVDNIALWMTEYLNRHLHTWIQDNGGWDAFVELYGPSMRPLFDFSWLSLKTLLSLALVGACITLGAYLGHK

A word on the IC50: it is the point on the concentration scale where inhibition reaches its midpoint. The term CC50 denotes the concentration at which the toxic effect on the cells reaches its halfway point. Turning to `O=C(NS(=O)(=O)c1ccc(NCC2CCOCC2)c([N+](=O)[O-])c1)c1ccc(N2CCN(CC3Cc4ccc(Cl)cc4CN3C(=O)C3CC3)CC2)cc1Oc1cnc2[nH]ccc2c1` (stereo not drawn) [Compound 20, 4-[4-[[7-chloro-2-(cyclopropanecarbonyl)-3,4-dihydro-1H-isoquinolin-3-yl]methyl]piperazin-1-yl]-N-[3-nitro-4-(tetrahydropyran-4-ylmethylamino)phenyl]sulfonyl-2-(1H-pyrrolo[2,3-b]pyridin-5-yloxy)benzamide], the IC50 in data set [1] was more than 50 nM; in data set [2], more than 4000 nM. In addition, the CC50 in data set [3] is more than 200 nM; in data set [4], 2000 to 10000 nM. The CC50 at 3 days in data set [5] is more than 25000 nM. Moreover, in data set [6], the EC50 is more than 250 nM.
With `CC1(O)CC[C@@H](CN2CCN(c3ccc(C(=O)NS(=O)(=O)c4ccc(NCC5CCOCC5)c([N+](=O)[O-])c4)c(Oc4cnc5[nH]ccc5c4)c3)CC2)[C@H](c2ccc(Cl)cc2)C1` (stereo partly drawn) [Compound 52, 4-[4-[[(1R,2R)-2-(4-chlorophenyl)-4-hydroxy-4-methyl-cyclohexyl]methyl]piperazin-1-yl]-N-[3-nitro-4-(tetrahydropyran-4-ylmethylamino)phenyl]sulfonyl-2-(1H-pyrrolo[2,3-b]pyridin-5-yloxy)benzamide], the IC50 in data set [1] was 5 to 10 nM; in data set [2], not above 2000 nM. For the same compound, the results for the CC50 in data set [3] and in data set [4] were less than 100 nM and 2000 to 10000 nM, respectively. Moreover, the CC50 at 3 days in data set [5] is 10000 to 25000 nM. Besides, in data set [6], the EC50 is not above 100 nM.
Consider `O=C(NS(=O)(=O)c1ccc(NCC2CCOCC2)c([N+](=O)[O-])c1)c1ccc(N2CCN(C[C@@H]3Cc4ccc(F)cc4CN3C(=O)C3CC3)CC2)cc1Oc1cnc2[nH]ccc2c1` [Compound 50, 4-[4-[[(3S)-2-(cyclopropanecarbonyl)-7-fluoro-3,4-dihydro-1H-isoquinolin-3-yl]methyl]piperazin-1-yl]-N-[3-nitro-4-(tetrahydropyran-4-ylmethylamino)phenyl]sulfonyl-2-(1H-pyrrolo[2,3-b]pyridin-5-yloxy)benzamide], for which the IC50 in data set [1] was more than 50 nM; in data set [2], more than 4000 nM. For the same compound, the CC50 in data set [3] was more than 200 nM; in data set [4] it was more than 10000 nM. Moreover, the CC50 at 3 days in data set [5] was more than 25000 nM. In data set [6], the EC50 was more than 250 nM.
As to `O=C(NS(=O)(=O)c1ccc(NCC2CCOCC2)c([N+](=O)[O-])c1)c1ccc(N2CCN(CC(O)(c3ccccc3)c3ccccc3)CC2)cc1Oc1cnc2[nH]ccc2c1` [Compound 7, 4-[4-(2-hydroxy-2,2-diphenyl-ethyl)piperazin-1-yl]-N-[3-nitro-4-(tetrahydropyran-4-ylmethylamino)phenyl]sulfonyl-2-(1H-pyrrolo[2,3-b]pyridin-5-yloxy)benzamide], the figures for the concentration for half-maximal inhibition (IC50) in data set [1] and in data set [2] were 10 to 50 nM and more than 4000 nM, respectively. Besides, the CC50 was more than 200 nM in data set [3] and 2000 to 10000 nM in data set [4]. Also, the CC50 at 3 days in data set [5] was more than 25000 nM. Also, the EC50 in data set [6] was more than 250 nM.
As to `CC(C)C(=O)N1Cc2cc(Cl)ccc2C[C@H]1CN1CCN(c2ccc(C(=O)NS(=O)(=O)c3ccc(NCC4CCOCC4)c([N+](=O)[O-])c3)c(Oc3cnc4[nH]ccc4c3)c2)CC1` [Compound 57, 4-[4-[[(3S)-7-chloro-2-(2-methylpropanoyl)-3,4-dihydro-1H-isoquinolin-3-yl]methyl]piperazin-1-yl]-N-[3-nitro-4-(tetrahydropyran-4-ylmethylamino)phenyl]sulfonyl-2-(1H-pyrrolo[2,3-b]pyridin-5-yloxy)benzamide], the IC50 in data set [1] was more than 50 nM; in data set [2] it was more than 4000 nM. Further, the figures for the CC50 in data set [3] and in data set [4] were more than 200 nM and 2000 to 10000 nM, respectively. The CC50 at 3 days in data set [5] lay in the range of 10000 to 25000 nM. For the same compound, in data set [6], the EC50 was more than 250 nM.
Consider `O=C(NS(=O)(=O)c1ccc(NCC2CCOCC2)c([N+](=O)[O-])c1)c1ccc(N2CCN(CC34CC(O)CCC3(c3ccc(Cl)cc3)C4)CC2)cc1Oc1cnc2[nH]ccc2c1` (stereo not drawn) [Compound 80, 4-[4-[[6-(4-chlorophenyl)-3-hydroxy-norcaran-1-yl]methyl]piperazin-1-yl]-N-[3-nitro-4-(tetrahydropyran-4-ylmethylamino)phenyl]sulfonyl-2-(1H-pyrrolo[2,3-b]pyridin-5-yloxy)benzamide], for which the values for the IC50 in data set [1] and in data set [2] were more than 50 nM and not above 2000 nM, respectively. Besides, the values for the CC50 in data set [3] and in data set [4] were more than 200 nM and more than 10000 nM, respectively. In data set [5], the CC50 at 3 days fell in the range of 10000 to 25000 nM. The EC50 in data set [6] is more than 250 nM.
For the compound `CC(C)C(=O)N1Cc2ccc(Cl)cc2C[C@H]1CN1CCN(c2ccc(C(=O)NS(=O)(=O)c3ccc(NCC4CCOCC4)c([N+](=O)[O-])c3)c(Oc3cnc4[nH]ccc4c3)c2)CC1` [Compound 40, 4-[4-[[(3S)-6-chloro-2-(2-methylpropanoyl)-3,4-dihydro-1H-isoquinolin-3-yl]methyl]piperazin-1-yl]-N-[3-nitro-4-(tetrahydropyran-4-ylmethylamino)phenyl]sulfonyl-2-(1H-pyrrolo[2,3-b]pyridin-5-yloxy)benzamide], the values for the IC50 in data set [1] and in data set [2] were more than 50 nM and more than 4000 nM, respectively. For the same compound, the values for the CC50 in data set [3] and in data set [4] were more than 200 nM and 2000 to 10000 nM, respectively. Besides, in data set [5], the CC50 at 3 days lay within 10000 to 25000 nM. Besides, in data set [6], the EC50 was more than 250 nM.
With `O=C(NS(=O)(=O)c1ccc(NCC2CCOCC2)c([N+](=O)[O-])c1)c1ccc(N2CCC(CN3Cc4ccccc4CC3c3ccccc3)CC2)cc1Oc1cnc2[nH]ccc2c1` (stereo not drawn) [Compound 41, N-[3-nitro-4-(tetrahydropyran-4-ylmethylamino)phenyl]sulfonyl-4-[4-[(3-phenyl-3,4-dihydro-1H-isoquinolin-2-yl)methyl]-1-piperidyl]-2-(1H-pyrrolo[2,3-b]pyridin-5-yloxy)benzamide], the values for the IC50 in data set [1] and in data set [2] were more than 50 nM and more than 4000 nM, respectively. Further, the CC50 in data set [3] was more than 200 nM; in data set [4], 2000 to 10000 nM. For the same compound, the CC50 at 3 days in data set [5] was more than 25000 nM. In data set [6], the EC50 was more than 250 nM.
As for `O=C(NS(=O)(=O)c1ccc(NC2CCS(=O)(=O)CC2)c([N+](=O)[O-])c1)c1ccc(N2CCC(CN3CCCCC3c3ccc(Cl)cc3)CC2)cc1Oc1cnc2[nH]ccc2c1` (stereo not drawn) [Compound 79, 4-[4-[[2-(4-chlorophenyl)-1-piperidyl]methyl]-1-piperidyl]-N-[4-[(1,1-dioxothian-4-yl)amino]-3-nitro-phenyl]sulfonyl-2-(1H-pyrrolo[2,3-b]pyridin-5-yloxy)benzamide], the IC50 is more than 50 nM in data set [1] and more than 4000 nM in data set [2]. Further, the CC50 in data set [3] was more than 200 nM; in data set [4], 2000 to 10000 nM. Also, the CC50 at 3 days in data set [5] is more than 25000 nM. Also, in data set [6], the EC50 is more than 250 nM.
As to `O=C(NS(=O)(=O)c1ccc(NCC2CCOCC2)c([N+](=O)[O-])c1)c1ccc(N2CCN(C[C@H]3Cc4ccccc4CN3C(=O)C3CC3)CC2)cc1Oc1cnc2[nH]ccc2c1` [Compound 33, 4-[4-[[(3R)-2-(cyclopropanecarbonyl)-3,4-dihydro-1H-isoquinolin-3-yl]methyl]piperazin-1-yl]-N-[3-nitro-4-(tetrahydropyran-4-ylmethylamino)phenyl]sulfonyl-2-(1H-pyrrolo[2,3-b]pyridin-5-yloxy)benzamide], the IC50 in data set [1] is 10 to 50 nM; in data set [2], more than 4000 nM. The CC50 in data set [3] is more than 200 nM; in data set [4], 2000 to 10000 nM. In addition, in data set [5], the CC50 at 3 days was more than 25000 nM. Further, in data set [6], the EC50 was more than 250 nM.
Regarding `O=C(NS(=O)(=O)c1ccc(NCC2CCOCC2)c([N+](=O)[O-])c1)c1ccc(N2CCC(CN3C(=O)C4(CCNCC4)C3c3ccc(Cl)cc3)CC2)cc1Oc1cnc2[nH]ccc2c1` (stereo not drawn) [Compound 56, 4-[4-[[1-(4-chlorophenyl)-3-oxo-2,7-diazaspiro[3.5]nonan-2-yl]methyl]-1-piperidyl]-N-[3-nitro-4-(tetrahydropyran-4-ylmethylamino)phenyl]sulfonyl-2-(1H-pyrrolo[2,3-b]pyridin-5-yloxy)benzamide], the IC50 lay in the range of 10 to 50 nM in data set [1] and 2000 to 4000 nM in data set [2]. Moreover, the CC50 was more than 200 nM in data set [3] and more than 10000 nM in data set [4]. Further, in data set [5], the CC50 at 3 days was more than 25000 nM. In data set [6], the EC50 is more than 250 nM.
